Read-outs that look alike come from different tables or passages of the source.

In data set [1] the test system is p21. Kind of data set: Clinical study of magnesium valproate: gene expression in post-treatment biopsies. Particulars: FIG. 8. The format is in vivo, human. Here is the method:
(§1) Twelve patients with this cancer of recent diagnosis and without previous treatment received the following doses of magnesium valproate in groups of 4 patients. Group 1, 20 mg/Kg, Group 2, 30 mg/kg, Group 3, 40 mg/Kg. A biopsy of the tumor and a blood sample were taken before the treatment and on the following day (day 6) since valproic acid or a salt thereof such as magnesium valproate was administered for 5 days in divided doses every 8 hours. The hyperacetylation of Histone H3 was analyzed in the samples and histone H4 in the tumor by Western blot, as well as the activity of histone deacetylases in nuclear extracts of the tumor using a calorimetric essay, as well as the levels of valproic acid in serum. The level of expression of the genes p21 and CAR was also analyzed in the pos-treatment biopsies. The toxicity of the treatment was recorded at the end of the cycle.

The test system of data set [2] is histone deacetylases. Description: Clinical study of magnesium valproate: histone deacetylase activity in nuclear extracts of the tumor. The format is in vivo, human. As to the method:
as §1

Data set [3] relates to Histone H3 and histone H4. Description: Clinical study of magnesium valproate: histone hyperacetylation in tumor by Western blot. The settings on record: of 12 patients, after treatment. The format is in vivo, human. Here is the method: as §1
For orientation: Immunoblotting shows a protein as a band on a membrane.

A short description of data set [4]: Clinical study of magnesium valproate: toxicity. The format is in vivo, human. Particulars: 20, 30, 40 mg/Kg for 5 days. As to the method:
as §1

Data set [5] concerns expression of suppressive genes (APC, MGMT, ER, GSTP1, DAPK, RARβ, FHIT, p16). As to the method: (§2) Whit this goal, hydralazine was administered to groups of 4 patients each group at doses of: 1) 50 mg/day, 2) 75 mg/day, 3) 100 mg/day and 4) 150 mg/day for 10 days. Biopsies and peripheral blood samples were taken before commencing treatment and at day 11. The state of pre- and post-treatment methylation was analyzed for the promoters of the following genes: APC, MGMT; ER, GSTP1, DAPK, RARβ, FHIT and p16 as well as the state of expression of their messengers by RT-PCR. Also the state of methylation of the gene subject to parental unactivation H19, and a genomic clone which normally is found methylated was evaluated, as well as the global content of methylated citokines in the genome. The toxicity to hydralazine was evaluated using the escale from the U.S. National Cancer Institute (CTC NCI). […] FIG. 3A.

The conditions of data set [6]: 50-150 mg/day for 10 days, cancer patients. As to the method: as §2
Data set [7] has as its system promoters of APC, MGMT, ER, GSTP1, DAPK, RARβ, FHIT and p16. Particulars: post-treatment biopsies. Here is the method: as §2
The subject of data set [8] is HeLa cells. Description: MTT cell viability assay, chemotherapeutic agent plus composition. The format is cell-based. The settings on record: for viability reduction: chemotherapeutic agent plus hydralazine 10 μM and magnesium valproate 1 mM, viability on day 4. As to the method: With this objective, three drugs were selected that are representative of his class: alkylating agents as cisplatin, antibiotic as doxorrubicin, antimetabolite as gemcitabine. The cells were plated in 96-well plates (Falcon Becton Dickinson, Franklin Lakes, N.J.) at a density of 1.5-2.5×10^3 cells/well in 0.1 ml of complete media. The following day the cells were treated with the chemotherapeutic agent at the concentration indicated in FIGS. 2A, 2B y 2C plus hydralazine at 10 μM and valproic acid or magnesium valproate at 1 mM. On the next day, the media containing the drugs was removed and fresh hydralazine and magnesium valproate were added at same concentration for another additional 48 hours. On the following day (day 4) cell viability was measured using an MTT assay. Briefly, 50 μl of MTT reagent in phosphate buffered solution were added to each well. […] Thereafter it is read spectrophotometrically on a ELISA reader. All the assays were carried out in triplicate. The cytotoxic effect of each treatment was expressed in the percentage of cell viability relative to the untreated control (% control) which is defined as [(A570nm treated cells)/A570nm untreated cells)]×100.
(Tetrazolium dyes change colour on reduction, which living cells bring about.)

Data set [9] concerns sarcoma HT1080 cellular line tumors. Description: HT1080 sarcoma model in immunodeficient mice. The format is in vivo, athymic mice. As to the method: Once the capacity of hydralazine and valproic acid or a salt thereof such as magnesium valproate to alter the expression génica in the patients' tumors was assessed, we investigate if the composition of these transcriptome modifying agents increased the antitumoral effect of the chemotherapy in a model of sarcoma in immunodeficient mice. With this goal, groups of 6 female athymic mice were studied, which were injected with 6 million cells of the sarcoma HT1080 cellular line. Once the tumors were formed, the animals were treated systemically with hydralazine and valproic acid or a salt thereof such as magnesium valproate with doses equivalent to those used in the patients. The groups of treatment were as follows: 1) control treated with saline solution, 2) treated weekly with adriamycin, 3) treated with the composition of hydralazine and valproato for 7 days followed by the same weekly treatment with adriamycin. […] This phenomenon occurs commonly in the treatment of the cancer in the patients, where often an entire or almost entire antitumoral response is observed to relapse later. The composition of the present invention therefore might induce extended or complete remissions of the tumors.

Regarding `CCCC(CCC)C(=O)O` [magnesium valproate, 2-propylpentanoic acid], the “expression of p21” value in data set [1] is listed as “increases its expression”. Besides, in data set [2], the “patients with no changes in activity of histone deacetylases” value is “two”. For the same compound, the “patients in whom activity of histone deacetylases diminished” value in data set [2] (two-tailed t test p<0.0264) turned out to be 8 patients. For the same compound, in data set [3], the “patients with hyperacetylation in both histones” value was “six”, the “patients with hyperacetylation of H3” value is given as “nine” and the “patients with hyperacetylation of H4” value is reported as “seven”. The tolerability entry in data set [4] was “well tolerated”. In addition, the “patients with Grade 2 drowsiness” value in data set [4] (of 12 patients) is listed as “nine”.
Turning to `NNc1nncc2ccccc12` [hydralazine, 1-hydrazinophthalazine], in data set [5] (dose between 50 and 150 mg), the “effect on genic expression in patients with cancer” value is “effective to alter the genic expression”. In addition, the “cases demethylated post-treatment that re-expressed the gene” value in data set [5] (of the 12 informative cases) turned out to be 9 cases. Moreover, in data set [6], the tolerability entry is recorded as “well tolerated”. Also, the undesirable effects registered result in data set [6] was “nausea, sickness, fatigue, headache and palpitations”. The percentage of demethylation in data set [7] (hydralazine 50 mg/day for 10 days) came to 40%; in [7] (hydralazine 75 mg/day for 10 days) it was 52%; in data set [7] (hydralazine 100 mg/day for 10 days) it was 43%; in data set [7] (hydralazine 150 mg/day for 10 days), 32%. The “frequency of demethylation, p16” value in data set [7] (2 out of 3) was 67%. Further, the “frequency of demethylation, MGMT” value in data set [7] (2 out of 13 samples) came out at 15%.
With `N.N.[Cl][Pt][Cl]` [cisplatin], in data set [8], the viability reduction turned out to be 37%. Besides, the IC50 in data set [8] (read-out: inhibitory concentration 50 (IC50)) worked out at 12 µM.
Consider `COc1cccc2c1C(=O)c1c(O)c3c(c(O)c1C2=O)C[C@@](O)(C(=O)CO)C[C@@H]3O[C@H]1C[C@H](N)[C@H](O)[C@H](C)O1` [adriamycin], for which the “tumor re-growth after 3 weeks” value in data set [9] (weekly adriamycin alone, or composition for 7 days followed by weekly adriamycin, FIG. 9) is reported as “the tumors grow again”. For the same compound, in data set [9] (weekly adriamycin, 3 weeks after treatment), the antitumoral effect entry is “almost complete antitumoral effect”. Besides, the viability reduction in [8] came out at 27%.
Take `Nc1ccn([C@@H]2O[C@H](CO)[C@@H](O)C2(F)F)c(=O)n1` [gemcitabine]: in [8], the viability reduction amounted to 37%.

The values above are taken from patent publication US9186339B2, “Use of transcriptome modifying agents and chemotherapy or radiotherapy against cancer” (UNIVERSIDAD NACIONAL AUTONOMA DE MEXICO, priority 2005, dated 2015).
